# Experimental data: US20240260575A1, “AGRICULTURAL AND HORTICULTURAL FUNGICIDAL COMPOSITION” (Nippon Soda Co., Ltd., priority 2021, published 2024)
# Tests used:
# [1] = test system: cucumber powdery mildew pathogen (Sphaerotheca fuliginea); assay: Cucumber powdery mildew control test; type: in vivo; set-up: scale not given here; settings: for control value: sprayed onto cucumber seedlings
# Source text: (Test Example) Cucumber Powdery Mildew Control Test 1) Preparation of Drug Solution for Test […] The other components (II) were each formulated into an aqueous solution or suspension having a predetermined concentration. 2) Test A mixed solution of a component (I) and a component (II) at a predetermined concentration was sprayed onto cucumber seedlings (variety: “Shimo-shirazu, creeping type”, cotyledon stage). After natural drying at room temperature, conidiospores of a cucumber powdery mildew pathogen (Sphaerotheca fuliginea) were inoculated by blushing off, and the seedlings were kept in a thermostatic room at 20° C. using a 12 hour light/dark cycle for 7 to 10 days. The states of lesion development on leaves were examined by comparing with that for the untreated case, and the control values were determined. The test was duplicately carried out. The results are shown in Tables 8 to 12 together with expected values calculated as follows. Expected values were calculated by using Colby's equation: […] Here, E denotes an expected value of a control value, M denotes a control value in using a component (I) alone, and N denotes a control value in using a component (II) alone. If the actually measured control value of a composition of a component (I) and a component (II) is higher than the expected value, E, the composition of a component (I) and a component (II) is said to have exerted synergistic effect.
# [2] = test system: gray mold pathogen (Botrytis cinerea); assay: Gray mold antimicrobial test (growth inhibition rate); type: cell-based; set-up: growth inhibition rate, component (II) alone: concentration or dose not given beside the values
# Procedure: (Test Example) Gray Mold Antimicrobial Test (Growth Inhibition Rate)
# Conidiospores of a gray mold pathogen (Botrytis cinerea) were added to and dispersed in a yeast extract sucrose medium, and a component (I) and a component (II) dissolved in dimethyl sulfoxide at predetermined concentrations were further added and mixed thereto, and the resulting solution was dispensed onto a 96-well microplate and cultivated in the dark at 20° C. for 3 to 5 days. After the cultivation, the turbidity at a wavelength of 405 nm was measured by a microplate reader and compared with that in the untreated case to determine the growth inhibition rate (%) for the gray mold pathogen. The test was duplicately carried out. The results are shown in Tables 3 to 7 together with expected values calculated as follows.
# Expected values were calculated by using Colby's equation: E=M+N−MN/100. Here, E denotes an expected value (%) of a growth inhibition rate, M denotes a growth inhibition rate (%) in using a component (I) alone, and N denotes a growth inhibition rate (%) in using a component (II) alone.
# If the actually measured growth inhibition rate (%) of a composition of a component (I) and a component (II) is higher than the expected value, E, the composition of a component (I) and a component (II) is said to have exerted synergistic effect.
# [3] = Table 8, ppm or dilution rate: Thiophanate-methyl 1.6, Triflumizole 25, Cyflufenamid 1.6, Iminoctadine acetate 0.25, Iminoctadine albesilate 1, Picarbutrazox 2000, Ipflufenoquin 1, Bacillus subtilis ×250, Pseudomonas rhodesiae ×2000, Sodium hydrogen carbonate 250, Potassium bicarbonate 250, Orange oil 4000, Linalool 4000, Thymol 100, Neem oil 2000, Prothioconazole 1.6, Mancozeb 63, Mineral oil 500
# [4] = Table 9, ppm or dilution rate: Thiophanate-methyl 1.6, Triflumizole 25, Cyflufenamid 1.6, Iminoctadine acetate 0.25, Iminoctadine albesilate 1, Picarbutrazox 2000, Ipflufenoquin 1, Bacillus subtilis ×250, Pseudomonas rhodesiae ×2000, Sodium hydrogen carbonate 250, Potassium bicarbonate 250, Orange oil 1000, Linalool 4000, Thymol 100, Neem oil 2000, Prothioconazole 1.6, Mancozeb 63, Mineral oil 500
# [5] = Table 10, ppm or dilution rate: Thiophanate-methyl 1.6, Triflumizole 25, Cyflufenamid 1.6, Iminoctadine acetate 0.25, Iminoctadine albesilate 1, Picarbutrazox 2000, Ipflufenoquin 1, Bacillus subtilis ×1000, Pseudomonas rhodesiae ×2000, Sodium hydrogen carbonate 250, Potassium bicarbonate 250, Orange oil 1000, Linalool 4000, Thymol 100, Neem oil 2000, Prothioconazole 1.6, Mancozeb 63, Mineral oil 5
# [6] = Table 11, ppm or dilution rate: Thiophanate-methyl 1.6, Triflumizole 25, Cyflufenamid 1.6, Iminoctadine acetate 1, Iminoctadine albesilate 1, Picarbutrazox 2000, Ipflufenoquin 1, Bacillus subtilis ×1000, Pseudomonas rhodesiae ×2000, Sodium hydrogen carbonate 250, Potassium bicarbonate 250, Orange oil 1000, Linalool 4000, Thymol 100, Neem oil 2000, Prothioconazole 1.6, Mancozeb 63, Mineral oil 500
# [7] = Table 12, ppm or dilution rate: Thiophanate-methyl 1.6, Triflumizole 25, Cyflufenamid 1.6, Iminoctadine acetate 0.25, Iminoctadine albesilate 1, Picarbutrazox 2000, Ipflufenoquin 1, Bacillus subtilis ×1000, Pseudomonas rhodesiae ×2000, Sodium hydrogen carbonate 1000, Potassium bicarbonate 250, Orange oil 1000, Linalool 4000, Thymol 400, Neem oil 2000, Prothioconazole 1.6, Mancozeb 63, Mineral oil
# [8] = Table 3, ppm: Ipflufenoquin 10, Cyflufenamid 10, Thiophamate-methyl 0.4, Iminoctadine acetate 0.08, Iminoctadine albesilate 0.08, Triflumizole 0.0032, Picarbutrazox 0.08, Prothioconazole 0.0032, Mefentrifluconazole 0.00064, Cymoxanil 10, Fludioxonil 0.016, Metyltetraprole 0.4, Florylpicoxamid 0.08, Fluxapyroxad 0.08, Fluopyram 0.4, Potassium phosphite 10, Fipronil 2, Chlorantraniliprole 0.016, Aba
# [9] = Table 4, ppm: Ipflufenoquin 10, Cyflufenamid 2, Thiophamate-methyl 0.4, Iminoctadine acetate 0.08, Iminoctadine albesilate 0.4, Picarbutrazox 10, Prothioconazole 0.0032, Mefentrifluconazole 0.0006, Cymoxanil 10, Fludioxonil 0.016, Metyltetraprole 10, Fluxapyroxad 0.016, Fluopyram 0.4, Potassium phosphite 10, Fipronil 2, Chlorantraniliprole 0.016, Abamectin 0.016, Sulfoxaflor 10, Tebufenozide 0.016
# [10] = Table 5, ppm: Ipflufenoquin 10, Cyflufenamid 10, Thiophamate-methyl 0.4, Iminoctadine albesilate 0.4, Picarbutrazox 0.0032, Mefentrifluconazole 0.0006, Cymoxanil 10, Captan 0.0032, Fludioxonil 0.016, Metyltetraprole 10, Florylpicoxamid 0.0001, Fluxapyroxad 0.016, Fluopyram 0.0032, Potassium phosphite 0.08, Fipronil 2, Chlorantraniliprole 0.016, Abamectin 0.4, Sulfoxaflor 0.4, Tebufenozide 10
# [11] = Table 6, ppm: Ipflufenoquin 10, Cyflufenamid 0.08, Thiophamate-methyl 2, Triflumizole 0.08, Picarbutrazox 0.0016, Prothioconazole 0.0006, Mefentrifluconazole 0.08, Cymoxanil 0.08, Captan 0.08, Fludioxonil 0.016, Metyltetraprole 10, Florylpicoxamid 0.0006, Fluxapyroxad 0.0032, Fluopyram 0.016, Potassium phosphite 0.016, Fipronil 10, Chlorantraniliprole 0.08, Abamectin 2, Sulfoxaflor 0.08, Tebufenoz
# [12] = Table 7, ppm: Ipflufenoquin 0.08, Cyflufenamid 0.08, Thiophamate-methyl 2, Iminoctadine acetate 0.0001, Iminoctadine albesilate 0.4, Triflumizole 0.4, Prothioconazole 0.0032, Mefentrifluconazole 0.08, Cymoxanil 0.08, Captan 0.08, Fludioxonil 0.08, Metyltetraprole 0.0032, Florylpicoxamid 0.0006, Fluxapyroxad 0.016, Fluopyram 0.0032, Potassium phosphite 0.016, Fipronil 2, Chlorantraniliprole 0.016
smiles,measurement,setting,value
COc1ccc(F)cc1C(Cn1cc(/C(C)=N/OC(C)C)c(=O)n(C[C@H](C)NC(=O)C(C)C)c1=O)OCCC#N (some centres unmarked) [Compound 5],control value,"[1]; Table 12, Examination 1, Compound 5 0.4 ppm alone or mixed with component (II)",83
same,control value,"[1]; Table 12, Examination 2, Compound 5 0.4 ppm alone or mixed with component (II)",60
same,control value,"[1]; Table 12, Examination 3, Compound 5 0.4 ppm alone or mixed with component (II)",56
same,control value,"[1]; Table 12, Examination 4, Compound 5 0.4 ppm alone or mixed with component (II)",50
same,control value,"[1]; Table 12, Examination 5, Compound 5 0.4 ppm alone or mixed with component (II)",67
same,control value,"[1]; Table 12, Examination 6, Compound 5 0.4 ppm alone or mixed with component (II)",50
same,control value,"[1]; Table 12, Examination 7, Compound 5 0.4 ppm alone or mixed with component (II)",67
same,growth inhibition rate,"[2]; Table 7, Examination 1, Compound 5 (0.25 or 0.063 ppm, head span unclear) alone or mixed with component (II)",61%
same,growth inhibition rate,"[2]; Table 7, Examination 2, Compound 5 (0.25 or 0.063 ppm, head span unclear) alone or mixed with component (II)",43%
same,growth inhibition rate,"[2]; Table 7, Examination 3, Compound 5 (0.25 or 0.063 ppm, head span unclear) alone or mixed with component (II)",13%
same,growth inhibition rate,"[2]; Table 7, Examination 4, Compound 5 (0.25 or 0.063 ppm, head span unclear) alone or mixed with component (II)",3%
same,growth inhibition rate,"[2]; Table 7, Examination 5, Compound 5 (0.25 or 0.063 ppm, head span unclear) alone or mixed with component (II)",3%
same,growth inhibition rate,"[2]; Table 7, Examination 6, Compound 5 (0.25 or 0.063 ppm, head span unclear) alone or mixed with component (II)",2%
"COc1ccc(F)cc1C(O)Cn1cc(/C(C)=N/OC(C)C)c(=O)n(C[C@H](C)NC(=O)C(C)C)c1=O (stereo partly drawn) [Compound 3, N-((2S)-1-(3-(2-(5-fluoro-2-methoxyphenyl)-2-hydroxyethyl)-5-((E)-1-(isopropoxyimino)ethyl)-2,6-dioxo-3,6-dihydropyrimidin-1(2H)-yl)propan-2-yl)isobutyramide]",control value,"[1]; Table 10, Examination 1, Compound 3 0.4 ppm alone or mixed with component (II)",72
same,control value,"[1]; Table 10, Examination 2, Compound 3 0.4 ppm alone or mixed with component (II)",68
same,control value,"[1]; Table 10, Examination 3, Compound 3 0.4 ppm alone or mixed with component (II)",56
same,control value,"[1]; Table 10, Examination 4, Compound 3 0.4 ppm alone or mixed with component (II)",61
same,control value,"[1]; Table 10, Examination 5, Compound 3 0.4 ppm alone or mixed with component (II)",34
same,control value,"[1]; Table 10, Examination 6, Compound 3 0.4 ppm alone or mixed with component (II)",67
same,control value,"[1]; Table 10, Examination 7, Compound 3 0.4 ppm alone or mixed with component (II)",67
same,growth inhibition rate,"[2]; Table 5, Examination 1, Compound 3 (0.25 or 0.063 ppm) alone or mixed with component (II)",74%
same,growth inhibition rate,"[2]; Table 5, Examination 2, Compound 3 (0.25 or 0.063 ppm) alone or mixed with component (II)",63%
same,growth inhibition rate,"[2]; Table 5, Examination 3, Compound 3 (0.25 or 0.063 ppm) alone or mixed with component (II)",48%
same,growth inhibition rate,"[2]; Table 5, Examination 4, Compound 3 (0.25 or 0.063 ppm) alone or mixed with component (II)",14%
Cc1nc2c(F)c(F)ccc2cc1Oc1cccc(F)c1C(C)(C)O [Ipflufenoquin],"control value, component (II) alone",[1]; [3],27
same,"control value, component (II) alone",[1]; [4],27
same,"control value, component (II) alone",[1]; [5],27
same,"control value, component (II) alone",[1]; [6],27
same,"control value, component (II) alone",[1]; [7],27
same,"growth inhibition rate, component (II) alone",[2]; [8],4%
same,"growth inhibition rate, component (II) alone",[2]; [9],4%
same,"growth inhibition rate, component (II) alone",[2]; [10],4%
same,"growth inhibition rate, component (II) alone",[2]; [11],4%
same,"growth inhibition rate, component (II) alone",[2]; [12],0%
COc1ccc(F)cc1C(O)Cn1cc(/C(C)=N/OC(C)C)c(=O)n(C[C@@H](NC(=O)C(C)(C)C)C(C)C)c1=O (some centres unmarked) [Compound 2],control value,"[1]; Table 9, Examination 1, Compound 2 0.4 ppm alone or mixed with component (II)",67
same,control value,"[1]; Table 9, Examination 2, Compound 2 0.4 ppm alone or mixed with component (II)",71
same,control value,"[1]; Table 9, Examination 3, Compound 2 0.4 ppm alone or mixed with component (II)",67
same,control value,"[1]; Table 9, Examination 4, Compound 2 0.4 ppm alone or mixed with component (II)",67
same,control value,"[1]; Table 9, Examination 5, Compound 2 0.4 ppm alone or mixed with component (II)",59
same,control value,"[1]; Table 9, Examination 6, Compound 2 0.4 ppm alone or mixed with component (II)",67
same,growth inhibition rate,"[2]; Table 4, Examination 1, Compound 2 (0.25 or 0.063 ppm) alone or mixed with component (II)",69%
same,growth inhibition rate,"[2]; Table 4, Examination 2, Compound 2 (0.25 or 0.063 ppm) alone or mixed with component (II)",53%
same,growth inhibition rate,"[2]; Table 4, Examination 3, Compound 2 (0.25 or 0.063 ppm) alone or mixed with component (II)",46%
same,growth inhibition rate,"[2]; Table 4, Examination 4, Compound 2 (0.25 or 0.063 ppm) alone or mixed with component (II)",41%
same,growth inhibition rate,"[2]; Table 4, Examination 5, Compound 2 (0.25 or 0.063 ppm) alone or mixed with component (II)",35%
CC(=O)O.CC(=O)O.CC(=O)O.NC(N)=NCCCCCCCCNCCCCCCCCN=C(N)N [Iminoctadine acetate],"control value, component (II) alone",[1]; [3],0
same,"control value, component (II) alone",[1]; [4],50
same,"control value, component (II) alone",[1]; [5],0
same,"control value, component (II) alone",[1]; [6],50
same,"control value, component (II) alone",[1]; [7],17
same,"growth inhibition rate, component (II) alone",[2]; [8],25%
same,"growth inhibition rate, component (II) alone",[2]; [9],56%
same,"growth inhibition rate, component (II) alone",[2]; [12],0%
Cn1nnnc1/C(=N\OCc1cccc(NC(=O)OC(C)(C)C)n1)c1ccccc1 [Picarbutrazox],"control value, component (II) alone",[1]; [3],50
same,"control value, component (II) alone",[1]; [4],50
same,"control value, component (II) alone",[1]; [5],50
same,"control value, component (II) alone",[1]; [6],50
same,"control value, component (II) alone",[1]; [7],50
same,"growth inhibition rate, component (II) alone",[2]; [8],0%
same,"growth inhibition rate, component (II) alone",[2]; [9],12%
same,"growth inhibition rate, component (II) alone",[2]; [10],1%
same,"growth inhibition rate, component (II) alone",[2]; [11],12%
